Data on three compounds can be found in patent US10246425B2, “3,5-diamino-6-chloro-N-(N-(4-phenylbutyl)carbamimidoyl) pyrazine-2-carboxamide compounds” (Parion Sciences, Inc., priority 2012, dated 2019).

One data set deals with Primary CBE cells. Put plainly: Airway hydration and sodium channel block (in vitro model): surface liquid retention. It is filed as cell-based, canine. Conditions: for surface liquid retained on apical surface (% initial volume): 50 μl buffer, 10 μM. As for the experimental part: Assay 4. Airway Hydration and Sodium Channel Block (In Vitro Model)
Primary CBE cells are plated onto collagen-coated, porous membranes maintained at an air-liquid interface to assess maintenance of surface liquid volume over time. At the start of the experiment, each 12 mm snapwell insert was removed from the plate containing air-liquid interface culture media, blotted dry, weighed, and 50 μL of vehicle (0.1% DMSO), or ENaC blocker (10 μM in 0.1% DMSO) applied to the apical surface and the mass was recorded. The inserts were immediately returned to a transwell plate (500 μL, Krebs Ringer Bicarbonate (KRB), pH 7.4 in lower chamber) and placed in a 37° C., 5% CO2 incubator. To reduce artifact due to an apical carbohydrate osmotic gradient upon water loss, glucose was not included in the apical buffer. Compound (1a) was tested and compared to vehicle, and the mass of ASL was monitored serially from 0-8 or 24 h. The mass of surface liquid was converted to volume in μL. Data are reported as % initial volume (100%=50 μL).
The duration of sodium transport inhibition was determined indirectly by measuring the buffer retained after a 50 μl volume of experimental buffer was added to the apical surface of CBE cells.

A short description of data set [1]: Plasma potassium in sheep of the MCC study (marker for hyperkalemia). As for the experimental part:
The animal model that has been used most often to measure changes in MCC is the sheep model. The effect of compounds for enhancing mucociliary clearance (MCC) can be measured using an in vivo model described by Sabater et al., Journal of Applied Physiology, 1999, pp. 2191-2196, incorporated herein by reference. In these studies, adult sheep were restrained and nasally intubated with an endotracheal tube. Aerosolized test articles were administered over 10-15 minutes to sheep. Radiolabeled ^99mTc-sulfur colloid (TSC, 3.1 mg/mL; containing approximately 20 mCi) was then administered at a specified time four or eight hours after test article. The radiolabeled aerosol was administered through the endotracheal tube for about 5 minutes. The sheep were then extubated, and total radioactive counts in the lung were measured every 5 minutes for a 1-hour observation period. The rate of radiolabel clearance from the lung is representative of the MCC rate in the animal. The advantage of this system is that it closely simulates the human lung environment. The model also allows for the collection of simultaneous PK/PD information through plasma and urine sampling over the test period. There are also several techniques to measure the drug concentrations on the airway surface during the MCC measurements. These include the collection of exhaled breath condensates or a filter paper method to obtain ASL via bronchoscopy.
The ovine model described above was used to evaluate the in vivo effects (efficacy/durability) of aerosol-delivered Compound II-d on MCC. Treatments consisting of either 4 mL of Compound II-d, Comparative Example 1, (S)-3,5-diamino-6-chloro-N—(N-(4-(4-(2,3-diamino-3-oxopropoxy)phenyl)butyl)carbamimidoyl)pyrazine-2-carboxamide, vehicle (sterile distilled H2O), or test agent in combination with HS were tested. To determine if combining HS with Compound II-d MCC, HS was administered immediately following Compound II-d administration. […] Radioactive counts were measured in a central region in the right lung at 5 min intervals for one hour with a gamma camera. […]

For another data set, the system named is sheep. The data set can be described thus: Mucociliary clearance (MCC) studies in sheep. It is filed as in vivo. The text has this:
Assay 2. Mucociliary Clearance (MCC) Studies in Sheep

Data set [2] has as its system human bronchial epithelial (HBE) cells. Put plainly: Airway surface liquid drug (ASL) clearance and metabolism by human airway epithelium. In kind it is in vitro ADME. Particulars: for % of Apical Mass as Metabolites (2 h) / % of Initial Apical Mass on Basolateral Side (2 h) / % on Basolateral Side as Metabolites (2 h): 25 μL of 25 μM apical. As for the experimental part: Assay 3. Airway Surface Liquid Drug (ASL) Clearance and Metabolism by Human Airway Epithelium
The disappearance of Compound II-d from the apical surface and airway epithelial metabolism were assessed in human bronchial epithelial (HBE) cells (Table 3). In these experiments 25 μL of a 25 μM solution of ENaC blocker was added to the apical surface of HBE cells grown at an air/liquid interface, and the drug concentration in the apical and basolateral compartment was measured over 2 h by UPLC.
Therefore, the compounds of Formula (A) have a longer half-life on mucosal surfaces compared to these know compounds as evidenced by the data shown in Table 4. The disappearance of Compound II-d from the apical surface and airway epithelial metabolism were assessed in HBE and compared to Comparative Example 1 (Table 4). In these experiments 25 μL of a 25 μM solution of ENaC blocker was added to the apical surface of HBE cells grown at an air/liquid interface, and the drug concentration in the apical and basolateral compartment was measured over 2 h by UPLC.

Setting [3] is: Table 5: sheep MCC 4 h post-dose, 24 nmol/kg (300 μM).
[4] abbreviates: Table 5: sheep MCC 4 h post-dose, 240 nmol/kg (3 mM).
Setting [5] is: Table 4: HBE cells, 2 h, mean ± SD.
The mark [6] stands for this setting: Table 4: HBE cells, 2 h, parent only.
[7] abbreviates: Table 5: sheep MCC 4 h post-dose, 0.024 nmol/kg (300 nM).
Where [8] appears, read: sheep MCC 4 h post-dose, 0.024 nmol/kg (300 nM) aerosol, mean ± SD (n).
Where [9] appears, read: sheep MCC 4 h post-dose, 0.24 nmol/kg (3 μM) aerosol, mean ± SD (n).
The mark [10] stands for this setting: HBE cells, 2 h incubation on the apical surface (37° C.), UPLC.

Regarding `N=C(N)NC(=O)c1nc(Cl)c(N)nc1N` [Amiloride, amiloride, reference compound], in the data set on Primary CBE cells (8 hours), the “surface liquid retained on apical surface (% initial volume)” value stood at 25±19.2%.
For `N=C(NCCCCc1ccc(OC[C@H](N)C(N)=O)cc1)NC(=O)c1nc(Cl)c(N)nc1N` [Comparative Example 1, (S)-3,5-diamino-6-chloro-N—(N-(4-(4-(2,3-diamino-3-oxopropoxy)phenyl)butyl)carbamimidoyl)pyrazine-2-carboxamide, reference compound], the “Top Dose in Sheep with no Elevation of Plasma Potassium” value in data set [1] was determined as 300 µM. Moreover, in the data set on sheep (Ovis aries, sheep MCC 4 h post-dose, slope, AUC and Maximum Clearance, read-out: ED50 in the sheep MCC model), the ED50 is around 0.24 µmol/kg. In addition, in the data set with sheep (setting [3]), the “AUC (% CI × h)” value is 6.9 ± 1.0 (3) % CI × h and the “Initial Slope (4.0-4.5 h)” value is on record as 14.5 ± 1.3 (3). Also, in the data set with sheep (setting [4]), the “AUC (% CI × h)” value is 14.1 ± 2.2 (6) % CI × h and the “Initial Slope (4.0-4.5 h)” value is listed as 32.2 ± 7.3 (6). In the data set with sheep (sheep), the “MCC Highest Submaximal Dose” value was determined as 3 mM. For the same compound, the “ED50 in the sheep MCC model (concentration of dosing solution)” value in the data set on sheep (sheep MCC 4 h post-dose) was around 3000 µM. For the same compound, the “elimination from the apical side” value in data set [2] (HBE cells, 2 h) is listed as “most of Comparative Example 1 was eliminated from the apical side”. For the same compound, in data set [2] (HBE cells, 2 h, apical side), the “metabolized to the less active carboxylic acid” value is recorded as 83%. Further, in data set [2] (setting [5]), the “% of Apical Mass as Metabolites (2 h)” value worked out at 83.0 ± 3.5%, the “% of Initial Apical Mass on Basolateral Side (2 h)” value is 8.3 ± 0.2^ % and the “% on Basolateral Side as Metabolites (2 h)” value (shortened to “% on Basolateral Side”) came out at 94.7 ± 1.0%. Besides, in data set [2] (setting [6]), the “% of Initial Apical Mass on Basolateral Side as Parent (2 h)” value is on record as “(1% Parent)” and the “% of Initial Drug Mass on Apical Side as Parent (2 h)” value is “(8% Parent)”.
Take `N=C(NCCCCc1ccc(CC[C@H](NCCCN(C[C@H](O)[C@@H](O)[C@H](O)[C@H](O)CO)C[C@H](O)[C@@H](O)[C@H](O)[C@H](O)CO)C(N)=O)cc1)NC(=O)c1nc(Cl)c(N)nc1N` [II-d, 3,5-diamino-N—(N-(4-(4-((S)-4-amino-3-(3-(bis((2S,3R,4R,5R)-2,3,4,5,6-pentahydroxyhexyl)amino)propylamino)-4-oxobutyl)phenyl)butyl)carbamimidoyl)-6-chloropyrazine-2-carboxamide]: in data set [1], the “Therapeutic Index, times greater renal safety than Comparative Example 1” value was 10,000-100,000 and the “Top Dose in Sheep with no Elevation of Plasma Potassium” value was 300 µM. Further, in the data set with sheep (setting [7]), the “AUC (% CI × h)” value was 11.5 ± 0.9 (4) % CI × h and the “Initial Slope (4.0-4.5 h)” value is 26.5 ± 1.4 (4). The “MCC Highest Submaximal Dose” value with sheep (sheep) is 0.0003 mM. In addition, in the data set with sheep (sheep MCC 4 hours post-dose), the “potency in sheep MCC relative to Comparative Example 1 (fold lower dose / times more potent)” value is listed as 10,000. Also, in the data set on sheep (setting [8]), the “AUC (% CI - h)” value is listed as 11.5 ± 0.9 (4) % CI - h and the “Initial Slope (4.0-4.5 h)” value was 26.5 ± 1.4 (4). In addition, in the data set on sheep (setting [9]), the “AUC (% CI - h)” value was 19.8 ± 1.4 (4) % CI - h and the “Initial Slope (4.0-4.5 h)” value is 41.9 ± 3.7 (4). Moreover, the ED50 dose result in the data set on sheep (sheep MCC four hour post-dosing) is “approximately 0.024 nmo/kg”. The “percentage mucus clearance over time (FIG. 6)” value in the data set on sheep (sheep MCC, clinically relevant dose range) is on record as “maximal effect”. Also, the “MCC effect at the top of the dose response curve” value with sheep (sheep, 0.24 nmol/kg dose) was “maximum (100%) MCC effect”. Further, the “effect on MCC compared to vehicle control” value in the data set on sheep (sheep, four hour post-dosing, all doses tested (0.024, 0.24 and 2.4 nmol/kg)) was “enhanced MCC compared to vehicle control”. Also, in data set [2] (setting [10]), the “compound detectable on the basolateral side” value is on record as “no Compound II-d was detectable on the basolateral side” and the “metabolites on the apical or basolateral sides” value is recorded as “no metabolites were detected”. Moreover, in data set [2] (Table 3: HBE cells, 2 h), the “% of Apical Mass as Metabolites (2 h)” value is reported as “None” and the “% on Basolateral Side” value is “None”. Further, the “% of Initial Apical Mass on Basolateral Side (2 h)” value in data set [2] (Table 3: HBE cells, 2 h, mean ± SD) was found to be 1.6 ± 0.15%. In addition, in data set [2] (setting [5]), the “% of Apical Mass as Metabolites (2 h)” value is on record as “None”, the “% of Initial Apical Mass on Basolateral Side (2 h)” value is 1.6 ± 0.15% and the “% on Basolateral Side” value is “None”. In the data set with Primary CBE cells (8 hours), the “surface liquid retained on apical surface (% initial volume)” value was 112±11%. In the data set with Primary CBE cells (24 hours), the “surface liquid retained on apical surface (% initial volume)” value turned out to be 70.6±8.0% and the “loss of surface liquid relative to the 8-hour measure” value worked out at 16%.

The term ED50 denotes the dose that gives a 50% effect, or the effect in half of the subjects.
